The record followed here is patent publication US7943607B2, “Heteroaryl benzamide derivatives for use as GLK activators in the treatment of diabetes” (AstraZeneca AB, priority 2005, dated 2011).

The subject of one assay is Zucker obese fa/fa rats. Kind of assay: Oral Glucose Tolerance Test (OGTT). It counts as in vivo, rat. The settings on record: 10 mg/kg; given orally 120 minutes before oral glucose 2 g/kg; Zucker obese fa/fa rats on high fat diet. As for the experimental part: Oral glucose tolerance tests were done on conscious Zucker obese fa/fa rats (age 12-13 weeks or older) fed a high fat diet (45% kcal fat) for at least two weeks prior to experimentation. The animals were fasted for 2 hours before use for experiments. A test compound or a vehicle was given orally 120 minutes before oral administration of a glucose solution at a dose of 2 g/kg body weight. Blood glucose levels were measured using a Accucheck glucometer from tail bled samples taken at different time points before and after administration of glucose (time course of […]). A time curve of the blood glucose levels was generated and the area-under-the-curve (AUC) for 120 minutes was calculated (the time of glucose administration being time zero). Percent reduction in glucose excursion was determined using the AUC in the vehicle-control group as zero percent reduction.

In assay [1] the target is T1, recombinant human pancreatic GLK (Homo sapiens, UniProt P35557).
T1 sequence (P35557 1-465): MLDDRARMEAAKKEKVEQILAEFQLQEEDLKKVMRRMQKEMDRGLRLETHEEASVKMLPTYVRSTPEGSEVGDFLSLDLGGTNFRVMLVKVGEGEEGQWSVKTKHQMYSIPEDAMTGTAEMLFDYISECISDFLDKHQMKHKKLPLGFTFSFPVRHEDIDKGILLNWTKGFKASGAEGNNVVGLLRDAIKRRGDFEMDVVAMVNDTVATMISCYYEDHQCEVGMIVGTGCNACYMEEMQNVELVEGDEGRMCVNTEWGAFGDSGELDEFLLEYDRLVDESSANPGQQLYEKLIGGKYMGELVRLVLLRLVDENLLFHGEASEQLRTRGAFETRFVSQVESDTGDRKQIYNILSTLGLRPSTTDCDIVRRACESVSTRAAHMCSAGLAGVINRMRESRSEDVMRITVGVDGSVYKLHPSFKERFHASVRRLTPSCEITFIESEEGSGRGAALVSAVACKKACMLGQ
Kind of assay: biochemical.

By EC50 is commonly meant the concentration needed to bring the measured effect to its halfway point. Regarding `C[C@@H](CO)Oc1cc(Oc2cc3c(cc2F)S(=O)(=O)CCCO3)cc(C(=O)Nc2ccn(C)n2)c1` [Example 3, 3-[(7-Fluoro-5,5-dioxido-3,4-dihydro-2H-1,5-benzoxathiepin-8-yl)oxy]-5-[(1S)-2-hydroxy-1-methylethoxy]-N-(1-methyl-1H-pyrazol-3-yl)benzamide], the “OGTT activity (percent reduction in glucose excursion, AUC vs vehicle control)” value with Zucker obese fa/fa rats came to 29%. For the same compound, the 50% effective concentration (EC50) in assay [1] worked out at 0.038 µM.
